{"source": "patent US20210255193A1", "about": "“LYSINE REACTIVE PROBES AND USES THEREOF” (The Scripps Research Institute, priority 2017, published 2021)", "key": {"PFKP [1]": {"biological_target": "T1, PFKP (Homo sapiens, UniProt Q01813)", "T1 construct": "Flag; expressed in transfected cells; host or cells: HEK 293T, transient transfection, soluble lysate; cDNA clone 5180268 (Dharmacon)", "T1 sequence (Q01813 1-784)": "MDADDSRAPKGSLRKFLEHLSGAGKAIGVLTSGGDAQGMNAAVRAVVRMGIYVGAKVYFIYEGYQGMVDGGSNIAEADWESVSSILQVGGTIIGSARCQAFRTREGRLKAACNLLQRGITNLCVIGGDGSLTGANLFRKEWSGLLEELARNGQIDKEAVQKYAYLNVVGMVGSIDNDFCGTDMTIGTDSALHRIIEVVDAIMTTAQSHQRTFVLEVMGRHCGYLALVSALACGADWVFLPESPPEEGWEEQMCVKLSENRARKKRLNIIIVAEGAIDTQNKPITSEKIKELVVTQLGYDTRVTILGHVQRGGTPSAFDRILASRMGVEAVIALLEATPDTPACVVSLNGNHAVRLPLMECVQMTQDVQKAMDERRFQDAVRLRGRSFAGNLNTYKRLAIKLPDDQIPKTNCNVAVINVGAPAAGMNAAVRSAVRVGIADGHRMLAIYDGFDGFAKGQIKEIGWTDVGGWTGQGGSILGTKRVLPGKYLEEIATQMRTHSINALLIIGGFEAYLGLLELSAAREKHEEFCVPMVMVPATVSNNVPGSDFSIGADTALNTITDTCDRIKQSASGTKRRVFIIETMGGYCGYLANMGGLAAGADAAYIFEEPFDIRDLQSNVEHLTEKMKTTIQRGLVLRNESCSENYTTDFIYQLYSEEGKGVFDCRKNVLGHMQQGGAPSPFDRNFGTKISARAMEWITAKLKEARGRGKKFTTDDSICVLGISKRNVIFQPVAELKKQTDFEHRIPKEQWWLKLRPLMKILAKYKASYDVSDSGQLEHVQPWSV", "test": "PFKP functional assay", "type": "biochemical", "settings": "WT-PFKP", "protocol": "(§1) PFKP functional assay. For inhibitor experiments, 50 μl of soluble proteome (initial total protein concentration: 1 mg ml^−1) from HEK 293T cells expressing PFKP (WT or K688R mutant) or mock transfected cells (empty vector; negative control) were incubated with 1 μl 50× of the compound in DMSO or DMSO for the positive or negative control for 1 h at room temperature. Lysates were diluted 40× with dilution buffer (PBS containing 0.2 mg ml^−1 BSA and 5 mM MgCl2) and 40 μl were added into a clear bottom 384 well plate. 10 μl of a mixture of 3.5 μl PBS, 2.5 μl fructose-6-phosphate (100 mM), 1 μl NADH (20 mM), 1 μl ATP (50 mM), 1 μl aldolase (50 U ml^−1) and 1 μl GDH/TPI (500 U ml^−1 TPI, 50 U ml^−1 GDH) were added to start the reaction. The absorbance of NADH was measured at 340 nm every minute for 30 min.\n(§2) Calculation of relative activity or percent inhibition. For PNPO, PFKP, NUDT2 and G6PD, the slope of the linear regression of the linear portion of the absorbance or fluorescence over time was used as measure their activity. Apparent activity was calculated relative to the WT. Percent inhibition was calculated relative to the positive and negative control and used to calculate IC50 values by nonlinear regression analysis from a dose-response curve generated using GraphPad Prism 7."}, "PFKP [2]": {"biological_target": "T2, PFKP (Homo sapiens, UniProt Q01813, K688R)", "T2 construct": "Flag; expressed in transfected cells; host or cells: HEK 293T, transient transfection, soluble lysate; cDNA clone 5180268 (Dharmacon)", "T2 sequence (Q01813 whole entry K688R)": "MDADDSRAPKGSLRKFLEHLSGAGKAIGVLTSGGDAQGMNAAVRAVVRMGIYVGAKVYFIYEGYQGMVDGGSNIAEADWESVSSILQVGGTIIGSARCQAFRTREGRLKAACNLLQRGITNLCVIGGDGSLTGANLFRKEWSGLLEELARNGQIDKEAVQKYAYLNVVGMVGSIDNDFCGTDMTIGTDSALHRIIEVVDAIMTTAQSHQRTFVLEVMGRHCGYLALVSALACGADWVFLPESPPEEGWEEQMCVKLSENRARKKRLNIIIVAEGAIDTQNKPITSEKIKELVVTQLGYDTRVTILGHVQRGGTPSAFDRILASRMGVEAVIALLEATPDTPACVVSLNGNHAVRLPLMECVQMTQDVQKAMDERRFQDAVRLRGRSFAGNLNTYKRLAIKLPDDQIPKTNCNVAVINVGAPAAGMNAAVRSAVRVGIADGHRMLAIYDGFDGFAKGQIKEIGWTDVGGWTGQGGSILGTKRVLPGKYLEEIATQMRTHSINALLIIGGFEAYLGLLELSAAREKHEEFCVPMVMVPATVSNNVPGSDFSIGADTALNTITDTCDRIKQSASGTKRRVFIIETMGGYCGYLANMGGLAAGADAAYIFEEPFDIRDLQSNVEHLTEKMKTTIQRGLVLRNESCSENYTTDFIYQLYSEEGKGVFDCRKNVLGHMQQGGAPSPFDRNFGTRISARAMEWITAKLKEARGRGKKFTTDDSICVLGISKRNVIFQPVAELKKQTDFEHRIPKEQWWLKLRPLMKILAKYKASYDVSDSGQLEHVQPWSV", "test": "PFKP functional assay", "type": "biochemical", "settings": "K688R mutant", "protocol": "as §1, §2"}, "[3]": {"biological_target": "T3, interaction between SIN3A and TGIF1 (Homo sapiens, UniProt Q96ST3)", "T3 construct": "flag-SIN3A or the indicated Flag-SIN3A mutants (a.a. 1-400), or Flag-GFP, were co-expressed in HEK 293T cells with Myc-TGIF1 or Myc-TGIF2; expressed in transfected cells; host or cells: HEK 293T", "T3 sequence (Q96ST3 1-400)": "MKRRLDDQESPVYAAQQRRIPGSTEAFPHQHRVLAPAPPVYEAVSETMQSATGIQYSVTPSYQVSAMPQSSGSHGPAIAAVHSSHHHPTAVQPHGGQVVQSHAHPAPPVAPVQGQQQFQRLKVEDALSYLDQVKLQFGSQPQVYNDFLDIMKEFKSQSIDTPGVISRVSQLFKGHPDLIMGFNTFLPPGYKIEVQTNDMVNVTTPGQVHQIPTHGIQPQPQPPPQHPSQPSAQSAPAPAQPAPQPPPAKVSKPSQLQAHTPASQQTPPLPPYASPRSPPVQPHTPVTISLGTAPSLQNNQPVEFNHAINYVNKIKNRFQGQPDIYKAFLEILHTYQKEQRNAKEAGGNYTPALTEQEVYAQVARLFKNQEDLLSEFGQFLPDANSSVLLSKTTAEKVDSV", "test": "Co-IP experiment, anti-Myc western blot", "type": "binding", "settings": "anti-Myc blotting", "protocol": "(§3) Co-IP experiment for the interaction between SIN3A and TGIF1 and TGIF2. 6 cm dishes of HEK 293T cells were transfected at 40% confluency with 600 ng of FLAG-GFP, FLAG-SIN3A WT, K155W, or K155R construct, and 600 ng of MYC-TGIF1 or MYC-TGIF2 as indicated. After 48 hours, cells were lysed and enriched as described above. Following elution in 40 μL urea, 15 μL of loading buffer was added to samples. 15 μL of both input (10%) and outputs were loaded onto an SDS-PAGE gel.\n(§4) Western blotting. Proteins were resolved by SDS-PAGE (3 h, 300 V) and transferred to nitrocellulose membranes (90 min, 60 V), blocked with 5% milk in TBS-T and probed with the indicated antibodies in 5% milk in TBS-T. The primary antibodies and the dilutions used are as follows: anti-Flag (Sigma Aldrich, F1804, 1:3,000), anti-Myc (Cell Signalling, 2272S, 1:5,000), anti-actin (Cell Signaling, 3700, 1:3,000) and anti-GAPDH (Santa Cruz, 32233, 1:10,000). Blots were incubated with primary antibodies overnight at 4° C. with rocking and were then washed (3×5 min, TBS-T) and incubated with secondary antibodies (LICOR, IRDye 800CW or IRDye 680LT, 1:10,000) for 1 h at ambient temperature. Blots were further washed (3×5 min, TBST) and visualized on a LICOR Odyssey Scanner. Relative band intensities were quantified using ImageJ software."}, "[4]": {"biological_target": "T4, interaction between SIN3A and TGIF1 (Homo sapiens, UniProt Q96ST3, K155R)", "T4 construct": "flag-SIN3A or the indicated Flag-SIN3A mutants (a.a. 1-400), or Flag-GFP, were co-expressed in HEK 293T cells with Myc-TGIF1 or Myc-TGIF2; expressed in transfected cells; host or cells: HEK 293T", "T4 sequence (Q96ST3 1-400 K155R)": "as the sequence (Q96ST3 1-400) above, with K155R counted along it", "test": "Co-IP experiment, anti-Myc western blot", "type": "binding", "settings": "K155R SIN3A", "protocol": "as §3, §4"}, "NUDT2": {"biological_target": "T5, NUDT2 (Homo sapiens, UniProt P50583)", "T5 construct": "expressed in transfected cells; host or cells: HEK 293T, transient transfection, soluble lysate; synthesized gene (IDT)", "test": "NUDT2 functional assay", "type": "biochemical", "settings": "substrate assay", "protocol": "NUDT2 functional assay. NUDT2 activity was measured with a published assay using a fluorogenic substrate. For inhibitor experiments, 50 μl of soluble proteome (initial total protein concentration: 1 mg ml^−1) from HEK 293T cells expressing NUDT2 (WT or K89R mutant) or mock transfected cells (empty vector; negative control) were incubated with 1 μl 50× of the compound in DMSO or DMSO for the positive or negative control (lysate transfected with empty vector) for 1 h at room temperature. Lysates were diluted 4000× with dilution buffer and 64 μl were added into a black 384 well plate. 16 μl of fluorogenic substrate (5 μM) were added to start the reaction. The fluorescence intensity with excitation at 530 nm and emission at 563 nm was measured every minute for 30 min.\nas §2"}}}
{"smiles": "O=C(Oc1c(F)c(F)c(F)c(F)c1F)C(c1ccccc1)c1ccccc1", "note": "[fragment 20, Pentafluorophenyl 2,2-diphenylacetate]", "values": [{"measurement": "IC50", "setting": "PFKP [1]; enzyme-coupled assay, read-out: apparent IC50, inhibition of PFKP activity", "value": 2.9, "unit": "µM"}, {"measurement": "maximal inhibitory effect, reduction in substrate turnover", "setting": "PFKP [1]; plateau", "value": "about 80%"}, {"measurement": "inhibition of K688R-PFKP mutant activity", "setting": "PFKP [2]", "value": "not the K688R-PFKP mutant"}]}
{"smiles": "O=C(Oc1c(F)c(F)c(F)c(F)c1F)c1cc(C(F)(F)F)cc(C(F)(F)F)c1", "note": "[fragment 21, Pentafluorophenyl 3,5-bis(trifluoromethyl)benzoate]", "values": [{"measurement": "co-immunoprecipitation of TGIF1 with SIN3A", "setting": "[3]", "value": "blocked the co-immunoprecipitation of TGIF1"}, {"measurement": "effect on SIN3A-TGIF1 interaction, K155R mutant", "setting": "[4]", "value": "conferred resistance to the effects of 21"}]}
{"smiles": "COC(=O)NC(=NC(=O)OCC1c2ccccc2-c2ccccc21)n1cccn1", "note": "[fragment 49, N-Methoxycarbonyl-N′-9-fluorenylmethoxycarbonyl-pyrazole-1-carboxamidine]", "values": [{"measurement": "IC50, inhibition of NUDT2 activity", "setting": "NUDT2", "value": "equivalent IC50 value"}]}
